The nature of the data set: Comparative test of solubility in water of different forms of rifaximin (spectrophotometric, absorbance at 450.50 nm). In kind it is physicochemical. The following applies: suspension in deionized water, constant stirring; for Solubility in water: 25° C. As to the method: The solubility in water of different forms of rifaximin was evaluated by means of spectrophotometric method, by performing the analyses on a Lambda10 (Perkin Elmer) apparatus. The tests were performed at room temperature in demineralized water according to the following methodology. 1 g of commercial rifaximin (identified as form γ by X diffractometry) was dried in thermogravimetric apparatus at 105° C. until constant weight. 50.3 mg of the dried powder were weighed and brought in solution with deionized water in 2-L calibrated flask (solution 1). Under these conditions rifaximin was fully dissolved. On a portion of the obtained solution the spectral scanning was performed in the range of wavelengths comprised between 190 and 800 nm, by using as white deionized water. The obtained absorption spectrum points out an isolated maximum at 450.50 nm and such wavelength was used for the analytical measures. The calibration straight line was obtained by dilution of portions of the solution 1, thus obtaining the solution 2 (dilution 1:2.5), the solution 3 (1:10), the solution 4 (1:20) and the solution 5 (1:50). The straight line resulted to follow the Lambert-Beer law, showing linearity in the concentration range of the five measured reference solutions. For the tests for comparing the solubilities of the different forms, the absorbance of samples obtained from rifaximin suspensions in water excess subjected to constant stirring at 25° C. was measured. After drying at 105° C. until weight constancy, quantities properly weighed of the samples under examination (for a value of about 15 mg) were placed in becker under magnetic stirring, at 25° C. with 80 ml of deionized water. Measures on different samples obtained according to the methodologies reported in the examples 8 and 13 (defined full amorphous), on amorphous ones obtained as described in the examples 1 and 5 (with two halos) and compared to those of commercially available rifaximin, verified as form γ. In different periods of time comprised between 0.5 and 180 minutes, about 2-ml collections were performed, placed in test tube, having the prudence of preventing the collection of the suspended solid by means of filtration with filters for HPLC with porosity 0.2 μm. 0.3 ml of the collected solution were read at the UV by measuring the absorbance 450.50 nm. The samples with higher concentration, with absorbances so as to fall out of the range of the calibration straight line, were diluted until going back to the calibration range. Each experimental point consisted in 3 measures, the values thereof, coincident within 5% of error, were mediated. The concentrations are expressed in grams/liter.

Solubility in water and solubility data for 5 compounds are collected here from patent US8952159B2, “Method for the production of amorphous rifaximin” (priority 2009, dated 2015).

Broadly, the solubility is the concentration that dissolves in the medium under given conditions. Read a high solubility as much dissolved substance.

Molecules are shown by their SMILES. Values after ≈ are worked out from the molar mass of the structure shown.

On to `CO[C@H]1/C=C/O[C@@]2(C)Oc3c(C)c(O)c4c(O)c(c5c(nc6cc(C)ccn65)c4c3C2=O)NC(=O)/C(C)=C\C=C\[C@H](C)[C@H](O)[C@@H](C)[C@@H](O)[C@@H](C)[C@H](OC(C)=O)[C@@H]1C` [example 1, rifaximin], for which the Solubility in water amounted to 1.11 µg/mL (≈ 1.41 µM) (time 0.5 min); 5.1 µg/mL (≈ 6.49 µM) (time 2 min); 6.9 µg/mL (≈ 8.78 µM) (time 5 min); 14 µg/mL (≈ 17.8 µM) (time 10 min); 25 µg/mL (≈ 31.8 µM) (time 30 min); 36 µg/mL (≈ 45.8 µM) (time 60 min). Also, the Solubility in water turned out to be 46 µg/mL (≈ 58.5 µM) (time 120 min) and 45 µg/mL (≈ 57.3 µM) (time 180 min).
`CO[C@H]1/C=C/O[C@@]2(C)Oc3c(C)c(O)c4c(O)c(c5c(nc6cc(C)ccn65)c4c3C2=O)NC(=O)/C(C)=C\C=C\[C@H](C)[C@H](O)[C@@H](C)[C@@H](O)[C@@H](C)[C@H](OC(C)=O)[C@@H]1C` [example 5, rifaximin] came in with a Solubility in water (time 5 min) of 7.1 µg/mL (≈ 9.03 µM); a Solubility in water (time 10 min) of 15 µg/mL (≈ 19.1 µM); a Solubility in water (time 30 min) of 27 µg/mL (≈ 34.4 µM); a Solubility in water (time 60 min) of 37 µg/mL (≈ 47.1 µM); a Solubility in water (time 120 min) of 44 µg/mL (≈ 56 µM); a Solubility in water (time 180 min) of 46 µg/mL (≈ 58.5 µM).
In the case of `CO[C@H]1/C=C/O[C@@]2(C)Oc3c(C)c(O)c4c(O)c(c5c(nc6cc(C)ccn65)c4c3C2=O)NC(=O)/C(C)=C\C=C\[C@H](C)[C@H](O)[C@@H](C)[C@@H](O)[C@@H](C)[C@H](OC(C)=O)[C@@H]1C` [example 8, rifaximin], the solubility at 120 min (deionized water, 25 °C, water, thermodynamic from solid, time 120 min) stood at 85 µg/mL (≈ 108 µM). Also, the Solubility in water is 3.3 µg/mL (≈ 4.2 µM) (time 0.5 min); 13 µg/mL (≈ 16.5 µM) (time 2 min); 29 µg/mL (≈ 36.9 µM) (time 5 min); 51 µg/mL (≈ 64.9 µM) (time 10 min); 76 µg/mL (≈ 96.7 µM) (time 30 min); 82 µg/mL (≈ 104 µM) (time 60 min). The Solubility in water (time 180 min) came to 86.4 µg/mL (≈ 110 µM).
Compound `CO[C@H]1/C=C/O[C@@]2(C)Oc3c(C)c(O)c4c(O)c(c5c(nc6cc(C)ccn65)c4c3C2=O)NC(=O)/C(C)=C\C=C\[C@H](C)[C@H](O)[C@@H](C)[C@@H](O)[C@@H](C)[C@H](OC(C)=O)[C@@H]1C` [example 13, rifaximin] came in with a Solubility in water (time 5 min) of 31 µg/mL (≈ 39.4 µM); a Solubility in water (time 10 min) of 55 µg/mL (≈ 70 µM); a Solubility in water (time 30 min) of 72 µg/mL (≈ 91.6 µM); a Solubility in water (time 60 min) of 81 µg/mL (≈ 103 µM); a Solubility in water (time 120 min) of 86 µg/mL (≈ 109 µM); a Solubility in water (time 180 min) of 89 µg/mL (≈ 113 µM).
In turn, `CO[C@H]1/C=C/O[C@@]2(C)Oc3c(C)c(O)c4c(O)c(c5c(nc6cc(C)ccn65)c4c3C2=O)NC(=O)/C(C)=C\C=C\[C@H](C)[C@H](O)[C@@H](C)[C@@H](O)[C@@H](C)[C@H](OC(C)=O)[C@@H]1C` [form γ, rifaximin] yielded a solubility at 1 min (deionized water, 25 °C, water, thermodynamic from solid, time 1 min) of 5.4 µg/mL (≈ 6.87 µM). Besides, the Solubility in water reads like this: (time 0.5 min) 2.7 µg/mL (≈ 3.44 µM); (time 2 min) 5.9 µg/mL (≈ 7.51 µM); (time 5 min) 8.2 µg/mL (≈ 10.4 µM); (time 10 min) 15 µg/mL (≈ 19.1 µM); (time 30 min) 23 µg/mL (≈ 29.3 µM); (time 60 min) 37 µg/mL (≈ 47.1 µM). Also, the Solubility in water is 43 µg/mL (≈ 54.7 µM) (time 120 min) and 42 µg/mL (≈ 53.4 µM) (time 180 min).
